From patent publication US20090048112A1, “Novel Herbicides” (SYNGENTA LIMITED, priority 2005, published 2009) come the findings set out here.

Common to all, as to type: in vivo
In assay [1] the test system is Monocotyledonous and dicotyledonous test plants. Kind of assay: Example B1: herbicidal action prior to emergence (pre-emergence), 500 g/ha. Particulars: 13 days after application, 0 = no damage, 100 = plants completely dead; for ALOMY herbicidal effect (visual assessment, percentage scale): Alopecurus myosuroides (slender foxtail); for AMARE herbicidal effect (visual assessment, percentage scale): Amaranthus retroflexus (redroot pigweed); for ECHCG herbicidal effect (visual assessment, percentage scale): Echinochloa crus-galli (barnyard grass); for STEME herbicidal effect (visual assessment, percentage scale): Stellaria media (chickweed). Here is the method:
(§1) Monocotyledonous and dicotyledonous test plants were sown in seed trays in standard compost. The trays were watered twice daily or as required. The chemicals were applied by track sprayer at the soil surface. The application was carried out with an aqueous suspension of the test substances, prepared as a formulation of 50% acetone in water with 0.5% Tween 20™ (CAS RN 9005-64-5), to achieve a field equivalent of 1000 l/ha. The application rate of the test substances was 500 g/ha. A visual assessment of the herbicidal effect was made at 13 days after application. The following percentage scale was used for assessment: 0, 5, 10, 20, 30, 40, 50, 60, 70, 80, 90, 95, 100 (where 0 is no damage to plants and 100 is plants are completely dead).

Assay [2] concerns Amaranthus retroflexus (redroot pigweed). Kind of assay: Example B2: herbicidal action post emergence, 500 g/ha. Particulars: applied to the foliage, 13 days after application, 0 is no damage to plants, 100 is plants completely dead. As for the experimental part:
as §1, with “standard compost and were grown for eight days.” for “standard compost.”, “sprayer to” for “sprayer at”, “the foliage.” for “the soil surface.”, “(where O” for “(where 0”

The test system of assay [3] is Echinochloa crus-galli (barnyard grass). The assay is described as above. Particulars: applied to the foliage, 13 days after application, 0 is no damage to plants, 100 is plants completely dead. Here is the method: as §1, with “standard compost and were grown for eight days.” for “standard compost.”, “sprayer to” for “sprayer at”, “the foliage.” for “the soil surface.”, “(where O” for “(where 0”

The test system of assay [4] is Alopecurus myosuroides (slender foxtail). The assay is described as above. As to conditions: applied to the foliage, 13 days after application, 0 is no damage to plants, 100 is plants completely dead. Here is the method:
as §1, with “standard compost and were grown for eight days.” for “standard compost.”, “sprayer to” for “sprayer at”, “the foliage.” for “the soil surface.”, “(where O” for “(where 0”

Assay [5] concerns Stellaria media (chickweed). The description is as above. As to conditions: applied to the foliage, 13 days after application, 0 is no damage to plants, 100 is plants completely dead. As for the experimental part:
as §1, with “standard compost and were grown for eight days.” for “standard compost.”, “sprayer to” for “sprayer at”, “the foliage.” for “the soil surface.”, “(where O” for “(where 0”

As for `COCCOc1c(C[S+]([O-])c2ncc(Cl)s2)c(C(F)(F)F)nn1C` (racemic) [1.051], in assay [1], the “ALOMY herbicidal effect (visual assessment, percentage scale)” value is listed as 80%; the “AMARE herbicidal effect (visual assessment, percentage scale)” value was 100%; the “ECHCG herbicidal effect (visual assessment, percentage scale)” value was 70%; the “STEME herbicidal effect (visual assessment, percentage scale)” value was determined as 100%. Also, in assay [2], the “AMARE, visual assessment of the herbicidal effect” value (from here on “AMARE, visual assessment”) was 70%. Moreover, the “ECHCG, visual assessment of the herbicidal effect” value (“ECHCG, visual assessment” for short) in assay [3] was 80%. The “ALOMY, visual assessment of the herbicidal effect” value (“ALOMY, visual assessment” for short) in assay [4] was 70%. Further, the “STEME, visual assessment of the herbicidal effect” value (“STEME, visual assessment” for short) in assay [5] is recorded as 70%.

Regarding `COCCOc1c(CS(=O)(=O)c2ncc(Cl)s2)c(C(F)(F)F)nn1C` [1.052], in assay [1], the “ALOMY herbicidal effect (visual assessment, percentage scale)” value turned out to be 80%; the “AMARE herbicidal effect (visual assessment, percentage scale)” value is on record as 100%; the “ECHCG herbicidal effect (visual assessment, percentage scale)” value stood at 95%; the “STEME herbicidal effect (visual assessment, percentage scale)” value was determined as 90%. Besides, the “AMARE, visual assessment” value in assay [2] was 50%. Moreover, the “ECHCG, visual assessment” value in assay [3] was 70%. Also, the “ALOMY, visual assessment” value in assay [4] is on record as 80%. Further, the “STEME, visual assessment” value in assay [5] is 10%.

For `Cn1nc(C(F)(F)F)c(CS(=O)(=O)c2ncc(Cl)s2)c1OC(F)F` [1.058], in assay [1], the “ALOMY herbicidal effect (visual assessment, percentage scale)” value is listed as 30%; the “AMARE herbicidal effect (visual assessment, percentage scale)” value stood at 100%; the “ECHCG herbicidal effect (visual assessment, percentage scale)” value is reported as 95%; the “STEME herbicidal effect (visual assessment, percentage scale)” value came out at 10%. Besides, the “AMARE, visual assessment” value in assay [2] amounted to 80%. Further, in assay [3], the “ECHCG, visual assessment” value worked out at 70%. Moreover, in assay [4], the “ALOMY, visual assessment” value was found to be 60%. Also, in assay [5], the “STEME, visual assessment” value was determined as 0%.

For the compound `CCOc1c(C[S+]([O-])c2ncc(Br)s2)c(C(F)(F)F)nn1C` (racemic) [1.022], in assay [1], the “ALOMY herbicidal effect (visual assessment, percentage scale)” value is given as 95%; the “AMARE herbicidal effect (visual assessment, percentage scale)” value amounted to 100%; the “ECHCG herbicidal effect (visual assessment, percentage scale)” value is given as 95%; the “STEME herbicidal effect (visual assessment, percentage scale)” value came to 90%. Also, the “AMARE, visual assessment” value in assay [2] is 70%. For the same compound, the “ECHCG, visual assessment” value in assay [3] was 80%. Further, in assay [4], the “ALOMY, visual assessment” value is on record as 60%. In addition, the “STEME, visual assessment” value in assay [5] is on record as 80%.

Consider `Cn1nc(C(F)(F)F)c(C[S+]([O-])c2ncc(Br)s2)c1OCC(F)F` (racemic) [1.025], for which, in assay [1], the “ALOMY herbicidal effect (visual assessment, percentage scale)” value is 95%; the “AMARE herbicidal effect (visual assessment, percentage scale)” value is listed as 100%; the “ECHCG herbicidal effect (visual assessment, percentage scale)” value turned out to be 95%; the “STEME herbicidal effect (visual assessment, percentage scale)” value was 90%. Further, the “AMARE, visual assessment” value in assay [2] is given as 80%. In addition, the “ECHCG, visual assessment” value in assay [3] was determined as 80%. Further, the “ALOMY, visual assessment” value in assay [4] amounted to 70%. In addition, in assay [5], the “STEME, visual assessment” value came to 90%.

With `Cn1nc(C(F)(F)F)c(C[S+]([O-])c2ncc(Cl)s2)c1Cl` (racemic) [1.017], in assay [1], the “ALOMY herbicidal effect (visual assessment, percentage scale)” value came to 95%; the “AMARE herbicidal effect (visual assessment, percentage scale)” value came out at 95%; the “ECHCG herbicidal effect (visual assessment, percentage scale)” value was 95%; the “STEME herbicidal effect (visual assessment, percentage scale)” value stood at 95%. Further, the “AMARE, visual assessment” value in assay [2] is 70%. Further, the “ECHCG, visual assessment” value in assay [3] is 60%. Moreover, the “ALOMY, visual assessment” value in assay [4] amounted to 70%. The “STEME, visual assessment” value in assay [5] was 70%.

Consider `Cn1nc(C(F)(F)F)c(CSc2ncc(Cl)s2)c1OC(F)F` [Compound No. 1.056], for which, in assay [1], the “ALOMY herbicidal effect (visual assessment, percentage scale)” value is recorded as 90%; the “AMARE herbicidal effect (visual assessment, percentage scale)” value is 95%; the “ECHCG herbicidal effect (visual assessment, percentage scale)” value is on record as 95%; the “STEME herbicidal effect (visual assessment, percentage scale)” value was 90%. The “AMARE, visual assessment” value in assay [2] was 70%. Besides, in assay [3], the “ECHCG, visual assessment” value is given as 70%. Besides, in assay [4], the “ALOMY, visual assessment” value is on record as 95%. In addition, the “STEME, visual assessment” value in assay [5] is 80%.

Consider `CCOc1c(CS(=O)(=O)c2ncc(Br)s2)c(C(F)(F)F)nn1C` [1.023], for which, in assay [1], the “ALOMY herbicidal effect (visual assessment, percentage scale)” value is listed as 50%; the “AMARE herbicidal effect (visual assessment, percentage scale)” value is 100%; the “ECHCG herbicidal effect (visual assessment, percentage scale)” value was determined as 90%; the “STEME herbicidal effect (visual assessment, percentage scale)” value was 30%. Also, the “AMARE, visual assessment” value in assay [2] was determined as 80%. The “ECHCG, visual assessment” value in assay [3] is given as 80%. Also, the “ALOMY, visual assessment” value in assay [4] amounted to 70%. Moreover, the “STEME, visual assessment” value in assay [5] is recorded as 20%.

On to `Cn1nc(C(F)(F)F)c(C[S+]([O-])c2ncc(Br)s2)c1OCC(F)(F)F` (stereo not shown) [Compound No. 1.002, 5-bromo-2-[1-methyl-5-(2,2,2-trifluoroethoxy)-3-trifluoromethyl-1H-pyrazol-4-ylmethanesulfinyl]-thiazole], for which, in assay [1], the “ALOMY herbicidal effect (visual assessment, percentage scale)” value amounted to 95%; the “AMARE herbicidal effect (visual assessment, percentage scale)” value was determined as 100%; the “ECHCG herbicidal effect (visual assessment, percentage scale)” value is recorded as 95%; the “STEME herbicidal effect (visual assessment, percentage scale)” value is 100%. The “AMARE, visual assessment” value in assay [2] came to 95%. Further, the “ECHCG, visual assessment” value in assay [3] was found to be 95%. Further, the “ALOMY, visual assessment” value in assay [4] was determined as 95%. In addition, the “STEME, visual assessment” value in assay [5] came out at 90%.

As for `Cn1nc(C(F)(F)F)c(C[S+]([O-])c2ncc(Br)s2)c1Cl` (racemic) [1.005], in assay [1], the “ALOMY herbicidal effect (visual assessment, percentage scale)” value is 95%; the “AMARE herbicidal effect (visual assessment, percentage scale)” value is recorded as 100%; the “ECHCG herbicidal effect (visual assessment, percentage scale)” value was 95%; the “STEME herbicidal effect (visual assessment, percentage scale)” value came out at 60%. Also, the “AMARE, visual assessment” value in assay [2] is given as 80%. Also, the “ECHCG, visual assessment” value in assay [3] is on record as 80%. Also, the “ALOMY, visual assessment” value in assay [4] was 80%. Besides, in assay [5], the “STEME, visual assessment” value is 70%.

As for `Cn1nc(C(F)(F)F)c(CSc2ncc(Cl)s2)c1OCC(F)(F)F` [Compound No. 1.013], in assay [1], the “ALOMY herbicidal effect (visual assessment, percentage scale)” value is listed as 95%; the “AMARE herbicidal effect (visual assessment, percentage scale)” value came to 95%; the “ECHCG herbicidal effect (visual assessment, percentage scale)” value amounted to 80%; the “STEME herbicidal effect (visual assessment, percentage scale)” value worked out at 95%. For the same compound, the “AMARE, visual assessment” value in assay [2] is on record as 60%. For the same compound, in assay [3], the “ECHCG, visual assessment” value was 50%. Further, the “ALOMY, visual assessment” value in assay [4] worked out at 60%. The “STEME, visual assessment” value in assay [5] is on record as 80%.

For `Cn1nc(C(F)(F)F)c(CS(=O)(=O)c2ncc(Br)s2)c1Cl` [Compound No. 1.006, 5-bromo-2-(5-chloro-1-methyl-3-trifluoromethyl-1H-pyrazol-4-ylmethanesulfonyl)-thiazole], in assay [1], the “ALOMY herbicidal effect (visual assessment, percentage scale)” value was 90%; the “AMARE herbicidal effect (visual assessment, percentage scale)” value is on record as 95%; the “ECHCG herbicidal effect (visual assessment, percentage scale)” value is on record as 95%; the “STEME herbicidal effect (visual assessment, percentage scale)” value is on record as 30%. In addition, the “AMARE, visual assessment” value in assay [2] is reported as 30%. Moreover, in assay [3], the “ECHCG, visual assessment” value amounted to 80%. Also, the “ALOMY, visual assessment” value in assay [4] worked out at 70%. Moreover, the “STEME, visual assessment” value in assay [5] was 0%.

Turning to `Cn1nc(C(F)(F)F)c(C[S+]([O-])c2ncc(Cl)s2)c1OCC(F)(F)F` (racemic) [1.014], in assay [1], the “ALOMY herbicidal effect (visual assessment, percentage scale)” value came out at 100%; the “AMARE herbicidal effect (visual assessment, percentage scale)” value turned out to be 100%; the “ECHCG herbicidal effect (visual assessment, percentage scale)” value is 95%; the “STEME herbicidal effect (visual assessment, percentage scale)” value was determined as 95%. The “AMARE, visual assessment” value in assay [2] was found to be 70%. The “ECHCG, visual assessment” value in assay [3] is on record as 60%. In addition, the “ALOMY, visual assessment” value in assay [4] is 70%. In addition, in assay [5], the “STEME, visual assessment” value is on record as 80%.

As to `Cn1nc(C(F)(F)F)c(CS(=O)(=O)c2ncc(Br)s2)c1OCC(F)F` [1.026], in assay [1], the “ALOMY herbicidal effect (visual assessment, percentage scale)” value is 60%; the “AMARE herbicidal effect (visual assessment, percentage scale)” value came to 90%; the “ECHCG herbicidal effect (visual assessment, percentage scale)” value is listed as 95%; the “STEME herbicidal effect (visual assessment, percentage scale)” value was 0%. Further, the “AMARE, visual assessment” value in assay [2] is on record as 60%. For the same compound, the “ECHCG, visual assessment” value in assay [3] turned out to be 70%. Further, the “ALOMY, visual assessment” value in assay [4] is listed as 70%. In addition, the “STEME, visual assessment” value in assay [5] amounted to 0%.
